According to patent publication US11279714B2, “Anti-infective compounds” (priority 2014, dated 2022):
≈ marks a conversion by molar mass, not a printed value.

Key:
[1] = tested on: Raw 264.7 cells infected with H37Rv-GFP; assay: microbe, parasite or virus in culture; format: cell-based, M. tuberculosis; details: for MIC50: Mycobacterium tuberculosis, H37RV, 120 h, read-out: QIM (MIC50)
[2] = tested on: M. tuberculosis H37Rv expressing the green fluorescent protein (H37Rv-GFP); assay: microbe, parasite or virus in culture; format: cell-based; details: for MIC50: Mycobacterium tuberculosis, H37RV, 120 h, read-out: QUM (MIC50)

Row | SMILES | MIC50 [1] | MIC50 [2] | QIM (MIC50, uM) [1] | QUM (MIC50, uM) [2]
1 | CN(CCO)c1nc2sc(C(=O)Nc3ccc(-c4nn(C)cc4Cl)cc3)cc2s1 [Compound 279] | 1 to 20 µM (≈ 0.448 to 8.96 µg/mL) |  |  | 
2 | CN(CCO)c1nc2sc(C(=O)Nc3ccc(-c4n[nH]cc4Cl)cc3)cc2s1 [Compound 281] | 1 to 20 µM (≈ 0.434 to 8.68 µg/mL) |  |  | 
3 | Cc1ccc(-c2ccc(NC(=O)c3cc4sc(N5CCC(C(=O)N(C)C)CC5)nc4s3)cc2)nc1 [Compound 217] | < 1 µM | 1 to 20 µM (≈ 0.506 to 10.1 µg/mL) |  | 
4 | O=C(Nc1ccc(F)cc1)c1cc2sc(N3CCC(C(O)c4ccc(Cl)cc4)CC3)nc2s1 (stereo not drawn) [Compound 247] | < 1 µM | 1 to 20 µM (≈ 0.502 to 10 µg/mL) |  | 
5 | O=C(Nc1ccc(-c2ccc(F)nc2)cc1)c1cc2sc(NCCOc3ccc(Cl)cc3)nc2s1 [Compound 301] | < 1 µM | > 20 µM |  | 
6 | Cc1nc2cc(NC(=O)c3cc4sc(N(C)CCN5CCC5)nc4s3)ccc2o1 [Compound 257] | > 20 µM |  |  | 
7 | Cn1ccc(-c2ccc(NC(=O)c3cc4sc(NCCN5CCOCC5)nc4s3)cc2)n1 [Compound 319] | < 1 µM | 1 to 20 µM (≈ 0.469 to 9.37 µg/mL) |  | 
8 | Cc1nnc(-c2ccc(NC(=O)c3cc4sc(N5CCC(C(=O)N(C)C)CC5)nc4s3)cc2)o1 [Compound 184] | > 20 µM | > 20 µM |  | 
9 | COc1ccc(NC(=O)c2cc3nc(N4CCCCC4)sc3s2)cc1 [Compound 2] | > 20 µM | > 20 µM |  | 
10 | CN(C)C(=O)CC1CCN(c2nc3sc(C(=O)Nc4ccc(-c5ccc(F)nc5)cc4)cc3s2)CC1 [Compound 351] | < 1 µM | < 1 µM |  | 
11 | O=C(Nc1ccc(-c2ccc(F)cn2)cc1)c1cc2sc(NCCCN3CCOCC3)nc2s1 [Compound 328] | < 1 µM | < 1 µM |  | 
12 | Cc1nc2cc(NC(=O)c3cc4sc(N5CCC(CC(=O)N(C)C)C5)nc4s3)ccc2o1 (stereo not drawn) [Compound 308] | < 1 µM | < 1 µM |  | 
13 | O=C(Nc1ccc(CN2CCN(c3ccc(F)cc3)CC2)cc1)c1cc2sc(N3CCOCC3)nc2s1 [Compound 211] | < 1 µM | < 1 µM |  | 
14 | CN(C)C(=O)C1CCN(c2nc3sc(C(=O)Nc4ccc(-c5nn(C)cc5F)cc4)cc3s2)CC1 [Compound 228] | < 1 µM | < 1 µM |  | 
15 | CC1CCN(c2ccc(NC(=O)c3cc4sc(NCCOc5ccc(Cl)cc5)nc4s3)cc2)CC1 [Compound 347] | > 20 µM | > 20 µM |  | 
16 | Cc1nc2cc(NC(=O)c3cc4sc(N5CC[C@H](C(=O)N(C)C)C5)nc4s3)ccc2o1 [Compound 215] | < 1 µM | < 1 µM |  | 
17 | COc1ccc(CNc2nc3sc(C(=O)Nc4ccc5oc(C)nc5c4)cc3s2)cc1 [Compound 239] | < 1 µM | 1 to 20 µM (≈ 0.451 to 9.01 µg/mL) |  | 
18 | Cc1nc2cc(NC(=O)c3cc4sc(N(C)CCC(=O)N(C)C)nc4s3)ccc2o1 [Compound 264] | 1 to 20 µM (≈ 0.444 to 8.87 µg/mL) |  |  | 
19 | COc1ccc(NC(=O)c2cc3sc(N4CCC(CO)CC4)nc3s2)cc1 [Compound 120] | < 1 µM | < 1 µM |  | 
20 | O=C(Nc1ccc(F)cc1)c1cc2sc(N3CCN4CCCC4C3)nc2s1 (stereo not drawn) [Compound 322] |  | 1 to 20 µM (≈ 0.403 to 8.05 µg/mL) |  | 
21 | Cc1nc2cc(NC(=O)c3cc4sc(N(C)CCOC(C)C)nc4s3)ccc2o1 [Compound 255] | > 20 µM |  |  | 
22 | CN(C)C(=O)C1CCN(c2nc3sc(C(=O)Nc4ccc(-c5ccc(F)cc5)cn4)cc3s2)CC1 [Compound 246] | < 1 µM | 1 to 20 µM (≈ 0.51 to 10.2 µg/mL) |  | 
23 | O=C(Nc1ccc(F)cc1)c1cc2sc(NC3CCNCC3)nc2s1 [Compound 312] | > 20 µM | > 20 µM |  | 

Row | SMILES | MIC50 [1] | MIC50 [2] | QIM (MIC50, uM) [1] | QUM (MIC50, uM) [2]
24 | Cc1nc2cc(NC(=O)c3cc4sc(NC5CCN(C)CC5)nc4s3)ccc2o1 [Compound 356] |  | > 20 µM |  | 
25 | CN(C)C(=O)C1CCN(c2nc3sc(C(=O)Nc4ccc(-c5ccn(C)n5)cc4)cc3s2)CC1 [Compound 203] | < 1 µM | < 1 µM |  | 
26 | Cc1nc2cc(NC(=O)c3cc4sc(N(C)CCN(C)C)nc4s3)ccc2o1 [Compound 253] | 1 to 20 µM (≈ 0.416 to 8.31 µg/mL) |  |  | 
27 | CN(C)C(=O)C1CCN(c2nc3sc(C(=O)Nc4ccc(-c5n[nH]cc5Cl)cc4)cc3s2)CC1 [Compound 280] | > 20 µM |  |  | 
28 | COCCCN(C)c1nc2sc(C(=O)Nc3ccc4oc(C)nc4c3)cc2s1 [Compound 254] | < 1 µM |  |  | 
29 | O=C(Nc1ccc(F)cc1)c1cc2sc(N3CCC(Oc4ccc(Cl)cc4)CC3)nc2s1 [Compound 235] | < 1 µM | > 20 µM |  | 
30 | O=C(Nc1ccc(-c2ccc(F)cn2)cc1)c1cc2sc(NCCN3CCOCC3)nc2s1 [Compound 293] | < 1 µM |  |  | 
31 | CN(C)C(=O)C1CCN(c2nc3sc(C(=O)Nc4ccc(-c5ccc(F)cn5)cc4)cc3s2)CC1 [Compound 284] |  | < 1 µM |  | 
32 | Cc1nc2cc(NC(=O)c3cc4sc(N5CCC(Nc6ccc(F)cc6)CC5)nc4s3)ccc2o1 [Compound 320] | < 1 µM | 1 to 20 µM (≈ 0.508 to 10.2 µg/mL) |  | 
33 | O=C(Nc1ccc(F)cc1)c1cc2sc(NC3CCCN(c4ccc(F)cc4)C3)nc2s1 (stereo not drawn) [Compound 318] | < 1 µM | > 20 µM |  | 
34 | O=C(Nc1ccc(N2CCC(Oc3ccc(Cl)cc3)CC2)cc1)c1cc2sc(N3CCOCC3)nc2s1 [Compound 193] | < 1 µM | > 20 µM |  | 
35 | Cc1ccc(-c2ccc(NC(=O)c3cc4sc(N5CCNCC5)nc4s3)cc2)nc1 [Compound 346] | < 1 µM | 1 to 20 µM (≈ 0.436 to 8.71 µg/mL) |  | 
36 | CC(C)(C)OC(=O)N1CCN(c2nc3sc(C(=O)Nc4ccc(-c5ccc(F)cn5)cc4)cc3s2)CC1 [Compound 306] | < 1 µM | > 20 µM |  | 
37 | CN(C)C(=O)C1CCN(c2nc3sc(C(=O)Nc4ccc(-c5ccc(F)cc5)cn4)cc3s2)CC1.CS(=O)(=O)O [Compound 283] |  |  | +++ (+++ indicates <1 uM) | 
38 | CN(C)C(=O)C1CCN(c2nc3sc(C(=O)Nc4ccc(-c5ccc(C(F)(F)F)nc5)cc4)cc3s2)CC1 [Compound 209] | < 1 µM | < 1 µM |  | 
39 | Cc1nc2cc(NC(=O)c3cc4sc(N5CCC(NC(=O)CC(C)(C)C)CC5)nc4s3)ccc2o1 [Compound 305] | < 1 µM | > 20 µM |  | 
40 | C#CCOc1ccc(-c2ccc(NC(=O)c3cc4sc(NCCN5CCOCC5)nc4s3)cc2)cc1 [Compound 359] | < 1 µM | 1 to 20 µM (≈ 0.519 to 10.4 µg/mL) |  | 
41 | Cc1nc2cc(NC(=O)c3cc4sc(NCCCN5CCOCC5)nc4s3)ccc2o1 [Compound 296] | < 1 µM | 1 to 20 µM (≈ 0.458 to 9.15 µg/mL) |  | 
42 | CCc1ccc(NC(=O)c2cc3nc(N4CCCCC4)sc3s2)cc1 [Compound 12] | > 20 µM | > 20 µM |  | 
43 | N#Cc1ccc(NC(=O)c2cc3sc(N4CCC(O)CC4)nc3s2)cc1 [Compound 133] | < 1 µM | 1 to 20 µM (≈ 0.384 to 7.69 µg/mL) |  | 
44 | O=C(Nc1ccc(-c2ccc(F)cn2)cc1)c1cc2sc(N3CCNCC3)nc2s1 [Compound 315] | < 1 µM | 1 to 20 µM (≈ 0.44 to 8.79 µg/mL) |  | 
45 | CN(CCO)c1nc2sc(C(=O)Nc3ccc4oc(CCc5ccc(F)cc5)nc4c3)cc2s1 [Compound 252] | < 1 µM | 1 to 20 µM (≈ 0.497 to 9.93 µg/mL) |  | 
46 | Cc1ccc(-c2ccc(NC(=O)c3cc4sc(N5CCOCC5)nc4s3)cc2)nc1 [Compound 218] | < 1 µM | > 20 µM |  | 

Row | SMILES | MIC50 [1] | MIC50 [2] | QIM (MIC50, uM) [1] | QUM (MIC50, uM) [2]
47 | Cc1nc2cc(NC(=O)c3cc4sc(NC5CCN(Cc6ccc(F)cc6)CC5)nc4s3)ccc2o1 [Compound 357] |  | 1 to 20 µM (≈ 0.522 to 10.4 µg/mL) |  | 
48 | COc1ccc(CN2CCN(c3nc4sc(C(=O)Nc5ccc(OC)cc5)cc4s3)CC2)cc1 [Compound 91] | < 1 µM | > 20 µM |  | 
49 | COc1ccc(NC(=O)c2cc3sc(N4CCc5cc(OC)ccc5C4)nc3s2)cc1 [Compound 168] | < 1 µM | 1 to 20 µM (≈ 0.452 to 9.03 µg/mL) |  | 
50 | Cc1nc2cc(NC(=O)c3cc4sc(NCCN5CCCCC5)nc4s3)ccc2o1 [Compound 297] | 1 to 20 µM (≈ 0.442 to 8.83 µg/mL) | > 20 µM |  | 
51 | Cc1ccc(-c2ccc(NC(=O)c3cc4sc(N5CCC(C(=O)N(C)C)CC5)nc4s3)cc2)nc1.Cl [Compound 258] |  |  | +++ (+++ indicates <1 uM) | ++ (++ indicates between 1-20 uM)
52 | O=C(Nc1ccc(F)cc1)c1cc2sc(NCCCN3CCOCC3)nc2s1 [Compound 327] | 1 to 20 µM (≈ 0.421 to 8.41 µg/mL) | 1 to 20 µM (≈ 0.421 to 8.41 µg/mL) |  | 
53 | CCN(CC)c1nc2sc(C(=O)Nc3ccc(OC)cc3)cc2s1 [Compound 287] | < 1 µM | < 1 µM |  | 
54 | CS(=O)(=O)O.CS(=O)(=O)O.O=C(Nc1ccc(-c2ccc(F)cn2)cc1)c1cc2sc(NCCN3CCOCC3)nc2s1 [Compound 360] |  | < 1 µM | +++ (+++ indicates <1 uM) | 
55 | CN(C)C(=O)CC1CCN(c2nc3sc(C(=O)Nc4ccc(F)cc4)cc3s2)C1 (stereo not drawn) [Compound 332] | < 1 µM | < 1 µM |  | 
56 | Cc1ccc(-c2ccc(NC(=O)c3cc4sc(N5CCC(C(=O)N(C)C)CC5)nc4s3)cc2)cn1 [Compound 204] | < 1 µM | < 1 µM |  | 
57 | COc1ccc(CN(CCO)c2nc3sc(C(=O)Nc4ccc5oc(C)nc5c4)cc3s2)cc1 [Compound 248] | < 1 µM | 1 to 20 µM (≈ 0.495 to 9.89 µg/mL) |  | 
58 | CN(C)C(=O)C1CCN(c2nc3sc(C(=O)Nc4ccc(-c5ccc(F)cc5)nc4)cc3s2)CC1.Cl [Compound 259] |  |  | +++ (+++ indicates <1 uM) | 
59 | COc1ccc(NC(=O)c2cc3sc(N4CCCCC4)nc3s2)c(OC)c1 [Compound 286] | > 20 µM |  |  | 
60 | Cc1nc2cc(NC(=O)c3cc4sc(N(C)CCOc5ccccc5)nc4s3)ccc2o1 [Compound 256] | < 1 µM |  |  | 
61 | CN1CCCC(Nc2nc3sc(C(=O)Nc4ccc(-c5ccc(F)nc5)cc4)cc3s2)C1 (stereo not drawn) [Compound 354] |  | 1 to 20 µM (≈ 0.468 to 9.35 µg/mL) |  | 
62 | CN(C)C(=O)C1CCN(c2nc3sc(C(=O)Nc4ccc(CN5CCOCC5)cc4)cc3s2)CC1 [Compound 353] |  | 1 to 20 µM (≈ 0.514 to 10.3 µg/mL) |  | 
63 | CN(C)C(=O)C1CCN(CCNc2nc3sc(C(=O)Nc4ccc(-c5ccc(F)cn5)cc4)cc3s2)CC1 [Compound 355] |  | 1 to 20 µM (≈ 0.553 to 11.1 µg/mL) |  | 
64 | COc1ccc(NC(=O)c2cc3sc(N4CCCCC4)nc3s2)cc1OC [Compound 285] | < 1 µM |  |  | 
65 | N#Cc1ccc(NC(=O)c2cc3sc(NCCN4CCOCC4)nc3s2)cc1 [Compound 303] | > 20 µM |  |  | 
66 | CN(C)C(=O)C1CCN(c2nc3sc(C(=O)Nc4ccc(-c5ccc(F)cn5)cc4)cc3s2)CC1 [Compound 268] | < 1 µM |  |  | 
67 | COc1ccc(NC(=O)c2cc3sc(N4CCCCC4)nc3s2)c(OC)c1OC [Compound 300] | > 20 µM |  |  | 
68 | CN(C)C(=O)C1CCN(c2nc3sc(C(=O)Nc4ccc(N5CCOCC5)cc4)cc3s2)CC1 [Compound 352] |  | < 1 µM |  | 
